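Results reflect a 48-hour exposure of cells in 96-well plates to compound at five concentrations. Abbreviation: GI50, concentration required for 50% inhibition of growth. The concentration for full growth arrest is given as TGI.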
Columns and labels:
Test in all cases: inhibition of tumour cell growth, NCI panel, 48 h
SK-MEL-28 melanoma = system: SK-MEL-28 melanoma
UACC-62 melanoma = system: UACC-62 melanoma
A498 renal = system: A498 renal
SNB-19 CNS = system: SNB-19 CNS
OVCAR-3 ovarian = system: OVCAR-3 ovarian
SW-620 colon = system: SW-620 colon
SN12C renal = system: SN12C renal
RXF 393 renal = system: RXF 393 renal
NCI-H226 lung = system: NCI-H226 lung
OVCAR-5 ovarian = system: OVCAR-5 ovarian
HCT-15 colon = system: HCT-15 colon
ACHN renal = system: ACHN renal
786-0 renal = system: 786-0 renal
UO-31 renal = system: UO-31 renal
MDA-MB-231 breast = system: MDA-MB-231 breast
HOP-92 NSCLC = system: HOP-92 NSCLC
RPMI-8226 leukemia = system: RPMI-8226 leukemia
NCI/ADR-RES ovarian = system: NCI/ADR-RES ovarian
A549 NSCLC = system: A549 NSCLC
MOLT-4 leukemia = system: MOLT-4 leukemia
K-562 leukemia = system: K-562 leukemia
KM12 colon = system: KM12 colon
HCT-116 colon = system: HCT-116 colon
HCC-2998 colon = system: HCC-2998 colon
DU-145 prostate = system: DU-145 prostate
NCI-H23 lung = system: NCI-H23 lung
MDA-MB-435 = system: MDA-MB-435
SK-MEL-5 melanoma = system: SK-MEL-5 melanoma
COLO 205 colon = system: COLO 205 colon
PC-3 prostate = system: PC-3 prostate
EKVX NSCLC = system: EKVX NSCLC
MCF7 breast = system: MCF7 breast
SK-OV-3 ovarian = system: SK-OV-3 ovarian
SF-295 CNS = system: SF-295 CNS
TK-10 renal = system: TK-10 renal
NCI-H460 lung = system: NCI-H460 lung
U251 CNS = system: U251 CNS
SNB-75 CNS = system: SNB-75 CNS
BT-549 breast = system: BT-549 breast
HT29 colon = system: HT29 colon
UACC-257 melanoma = system: UACC-257 melanoma
OVCAR-4 ovarian = system: OVCAR-4 ovarian
NCI-H522 lung = system: NCI-H522 lung
MALME-3M melanoma = system: MALME-3M melanoma
SF-268 CNS = system: SF-268 CNS
IGROV1 ovarian = system: IGROV1 ovarian
M14 melanoma = system: M14 melanoma
SK-MEL-2 melanoma = system: SK-MEL-2 melanoma
HOP-62 NSCLC = system: HOP-62 NSCLC
SF-539 CNS = system: SF-539 CNS
HL-60(TB) leukemia = system: HL-60(TB) leukemia
CAKI-1 renal = system: CAKI-1 renal

## O=[N+]([O-])c1ccc(OCc2nnc(CCCCCCCCc3nnc(COc4ccc([N+](=O)[O-])cc4)o3)o2)cc1
SK-MEL-28 melanoma
  TGI: > 100 µM
UACC-62 melanoma
  TGI: > 100 µM
A498 renal
  TGI: > 100 µM
SNB-19 CNS
  TGI: > 100 µM
OVCAR-3 ovarian
  TGI: > 100 µM
SW-620 colon
  TGI: > 100 µM
SN12C renal
  TGI: > 100 µM
RXF 393 renal
  TGI: 83.3 µM
NCI-H226 lung
  TGI: > 100 µM
OVCAR-5 ovarian
  TGI: > 100 µM
HCT-15 colon
  TGI: > 100 µM
ACHN renal
  TGI: > 100 µM
786-0 renal
  TGI: > 100 µM
UO-31 renal
  TGI: > 100 µM
MDA-MB-231 breast
  TGI: > 100 µM
HOP-92 NSCLC
  TGI: > 100 µM
RPMI-8226 leukemia
  TGI: > 100 µM
NCI/ADR-RES ovarian
  TGI: > 100 µM
A549 NSCLC
  TGI: > 100 µM
MOLT-4 leukemia
  TGI: > 100 µM
K-562 leukemia
  TGI: > 100 µM
KM12 colon
  TGI: > 100 µM
HCT-116 colon
  TGI: > 100 µM
HCC-2998 colon
  TGI: > 100 µM
DU-145 prostate
  TGI: > 100 µM
NCI-H23 lung
  TGI: > 100 µM
MDA-MB-435
  TGI: > 100 µM
SK-MEL-5 melanoma
  TGI: > 100 µM
COLO 205 colon
  TGI: > 100 µM
PC-3 prostate
  TGI: > 100 µM
EKVX NSCLC
  TGI: > 100 µM
MCF7 breast
  TGI: > 100 µM
SK-OV-3 ovarian
  TGI: > 100 µM
SF-295 CNS
  TGI: > 100 µM
TK-10 renal
  TGI: > 100 µM
NCI-H460 lung
  TGI: > 100 µM
U251 CNS
  TGI: > 100 µM
SNB-75 CNS
  TGI: > 100 µM
BT-549 breast
  TGI: > 100 µM
HT29 colon
  TGI: > 100 µM
UACC-257 melanoma
  TGI: > 100 µM
OVCAR-4 ovarian
  TGI: > 100 µM
NCI-H522 lung
  TGI: > 100 µM
MALME-3M melanoma
  TGI: > 100 µM
SF-268 CNS
  TGI: > 100 µM
IGROV1 ovarian
  TGI: > 100 µM
M14 melanoma
  TGI: > 100 µM
SK-MEL-2 melanoma
  TGI: > 100 µM

## CCCN1CCN(c2ccc3nc(-c4ccc5nc(-c6ccc(C(F)(F)F)cc6)[nH]c5c4)[nH]c3c2)CC1
SK-MEL-28 melanoma
  GI50: 1.78 µM
  TGI: 3.25 µM
UACC-62 melanoma
  GI50: 1.66 µM
  TGI: 3.23 µM
A498 renal
  GI50: 1.87 µM
  TGI: 3.77 µM
OVCAR-3 ovarian
  GI50: 1.65 µM
  TGI: 3.07 µM
OVCAR-5 ovarian
  GI50: 1.93 µM
  TGI: 3.36 µM
HOP-62 NSCLC
  GI50: 1.56 µM
  TGI: 3.15 µM
ACHN renal
  GI50: 1.6 µM
  TGI: 2.96 µM
786-0 renal
  GI50: 1.78 µM
  TGI: 3.27 µM
MDA-MB-231 breast
  GI50: 1.98 µM
  TGI: 3.52 µM
SF-539 CNS
  GI50: 1.77 µM
  TGI: 3.2 µM
NCI/ADR-RES ovarian
  GI50: 6.46 µM
  TGI: > 100 µM
MOLT-4 leukemia
  GI50: 1.87 µM
  TGI: 3.62 µM
KM12 colon
  GI50: 1.78 µM
  TGI: 3.32 µM
HCT-116 colon
  GI50: 1.38 µM
  TGI: 2.71 µM
HCC-2998 colon
  GI50: 1.89 µM
  TGI: 3.46 µM
DU-145 prostate
  GI50: 1.9 µM
  TGI: 3.36 µM
NCI-H23 lung
  GI50: 1.71 µM
  TGI: 3.22 µM
MDA-MB-435
  GI50: 1.86 µM
  TGI: 3.47 µM
SK-MEL-5 melanoma
  GI50: 1.77 µM
  TGI: 3.48 µM
COLO 205 colon
  GI50: 1.52 µM
  TGI: 3.24 µM
HL-60(TB) leukemia
  GI50: 2 µM
  TGI: 3.76 µM
CAKI-1 renal
  GI50: 1.76 µM
  TGI: 3.2 µM
EKVX NSCLC
  GI50: 1.87 µM
  TGI: 3.33 µM
SF-295 CNS
  GI50: 1.66 µM
  TGI: 3.1 µM
SNB-75 CNS
  GI50: 1.5 µM
  TGI: 2.93 µM
BT-549 breast
  GI50: 1.75 µM
  TGI: 3.2 µM
UACC-257 melanoma
  GI50: 1.85 µM
  TGI: 3.57 µM
OVCAR-4 ovarian
  GI50: 1.75 µM
  TGI: 3.44 µM
MALME-3M melanoma
  GI50: 1.35 µM
  TGI: 2.77 µM
SF-268 CNS
  GI50: 1.88 µM
  TGI: 3.56 µM
M14 melanoma
  GI50: 1.48 µM
  TGI: 2.88 µM
SK-MEL-2 melanoma
  GI50: 1.92 µM
  TGI: 3.58 µM

— PubChem BioAssay (NCI)
